Series [1] relates to C. parvum. Description: C. parvum in vitro culture assay, intracellular stages in infected HCT-8 cells. It is filed as cell-based, Cryptosporidium parvum IOWA isolate. Here is the method:
Growth of C. parvum in cell culture was performed as described previously. Briefly, purified C. parvum IOWA isolate oocysts were washed with phosphate-buffered saline (PBS, pH 7.4) to remove the storage buffer (2.5% w/v aqueous potassium dichromate) and resuspended in RPMI 1640 media supplemented with 0.75% sodium taurocholate and incubated for 30 min at 37 °C. The excystation mixture containing oocysts, oocyst shells and free sporozoites was diluted with RPMI 1640 with 10% fetal bovine serum (FBS). Approximately 1 × 10^5 oocysts and sporozoites were dispensed per well in 24-well plates containing confluent HCT-8 cells. Host cells inoculated with the parasite mixture were incubated for 3 h and subsequently washed with PBS to remove free parasites (those that had not invaded host cells). PBS was replaced with fresh RPMI 1640 with 10% FBS with or without test compounds and the cultures were incubated for 48 h. In addition, RPMI 1640 with 10% FBS supplemented with DMSO (same concentration used with test compounds) was evaluated to determine the effect of inhibition or toxicity on cultures. Culture wells were washed with PBS, and then PBS was replaced by Bouin’s solution. After fixation of cultures, the Bouin solution was removed and decolorized with 70% ethanol, followed by 5 washes with PBS. Culture wells were labeled with an anti-C. parvum fluorescein-labeled monoclonal antibody (C3C3-FITC) and parasites were enumerated via quantitative fluorescent microscopy at 400× magnification using an Olympus IX73 microscope (Waltham, MA, USA). Twenty-four sequential, non-overlapping fields per well were captured as digital images, constituting a representative subsample of the entire well. The parasites were quantified using OpenCFU (https://sourceforge.net/projects/opencfu/, accessed on 4 October 2014) software based on the size of the fluorescing parasites and the parasite-specific fluorescent signal. Data were obtained from four well replicates, and each experiment was repeated at least twice. Dose–effect curves and the median effective concentration (EC50) of each compound alone or in combination was determined using CompuSyn (ComboSyn, Inc., Paramus, NJ, USA, ver. 2.1 for Microsoft Windows) computer software. The EC50 was defined as the concentration required for reducing the number of parasites by 50% compared with the untreated control. […]

The next series has as its system HCT-8 cells. Description: Compound toxicity for host cell cultures (CellTiter 96 tetrazolium assay). It is filed as cell-based, human. Here is the method:
(§1) Test compound toxicity for HCT-8 cell cultures was assessed using the CellTiter 96 Non-Radioactive Cell Proliferation/Cytotoxicity assay as recommended by the manufacturer (Promega Corporation, Madison, WI, USA).

In series [2] the test system is cytokine production in HCT-8 cells. In words: Cytokine production, Luminex 48-plex, HCT-8 supernatants. To be noted: for majority of cytokines in the 48-plex assay (including IL-6 and TNF-α): 48 h treatment, alone or in combination with C. parvum infection. It is filed as cell-based, human. Here is the method:
For the cytokine assay, the in vitro infection assay was performed as described above. Supernatants from 24-well plates were collected and stored at –80 °C. Luminex multiplex assays were completed by Eve Technologies using the Human Cytokine discovery Array 48-plex Panel (Calgary, AB, Canada).

Series [3] can be described thus: Compound toxicity for host cell cultures (CellTiter 96 tetrazolium assay). It is filed as cell-based, human. Conditions: human; HDAC inhibitors; 48 h; read-out: Cytotoxicity Concentration (CC50) for HCT-8 Host Cells. How it is done: as §1
Another series concerns Cryptosporidium. Also on record: method as in PMID 8917558. Conditions: previously reported; cited from earlier work.
A further series deals with C. parvum sporozoites. In words: SCFA treatment of live sporozoites before inoculation onto HCT-8 cells. It is filed as cell-based, Cryptosporidium parvum. To be noted: for inhibition of sporozoites: 45 min incubation with sporozoites prior to infection of host cell monolayers; for EC50: sporozoites incubated 45 min with SCFA, washed, then 48 h development on HCT-8 cells, read-out: EC50 for Sporozoite Stages. Here is the method: Sporozoites were prepared according to You et al., 1998 [15]. Briefly, after excystation, the C. parvum oocysts and sporozoite mixture was filtered through a […] filter using a syringe and centrifuged, washed and counted. Isolated sporozoites were incubated with different SCFAs for 45 min, then washed several times to remove SCFAs before plating on cell monolayers. Sporozoites were then inoculated onto HCT-8 cells and incubated for 3 h. Monolayers were then washed, media was replaced and parasites were allowed to develop for 48 h, as described in the culture assay above. Cells were fixed and labeled and parasitic stages were quantitated as described above.

Series [4] has as its system T. gondii. Set-up: method as in PMID 17626366. To be noted: cited from earlier work; for IC50: cell monolayers infected and then treated.
Series [5] relates to T. gondii. Also on record: method as in PMID 34339265. To be noted: treatment of mice; cited from earlier work.
For a further series, the system named is E. invadens. Set-up: method as in PMID 15659070. Conditions: incubated individually; cited from earlier work.
The subject of series [6] is C. parvum. Set-up: method as in PMID 24273180. To be noted: cited from earlier work.
The subject of series [7] is C. parvum. Set-up: method as in PMID 24273180. Conditions: cited from earlier work. The source holds these as a separate data set.
The test system of a further series is apoptosis in HCT-8 cells. Description: Apoptosis assay (Caspase-Glo 3/7). It is filed as cell-based, human. To be noted: 24 h. Here is the method: In vitro assays were performed as described above. Briefly, HCT-8 cells were infected with C. parvum and/or treated with 1 mM butyrate for 24 h, after which the cells were analyzed for percent apoptosis. Control wells (uninfected, untreated) were compared with treated wells and infected wells. Apoptosis in HCT-8 cell cultures was measured using a commercially available assay (Promega Corporation, Madison, WI, USA). Caspase-Glo3/7 reagent was added directly to the assay wells.

For a further series, the system named is autophagy in HCT-8 cells. Description: Autophagy assay (autophagosome detection reagent). The class given is cell-based, human. Conditions: 24 h. How it is done:
In vitro assays were performed as described above. Briefly, HCT-8 cells were infected with C. parvum and/or treated with 1 mM butyrate for 24 h, after which the cells were analyzed for […]. Control wells (uninfected, untreated) were compared with treated wells and infected wells. An autophagy assay was used following the recommendation of the manufacturer (Sigma-Aldrich, St. Louis, MO, USA). The medium was removed from the wells and 100 µL of the proprietary autophagosome detection reagent was added directly to each well. The plate was then incubated for 45 min at 37 °C and 5% CO2. The detection reagent was then removed, and each well was washed 3 times with the provided wash buffer before measuring fluorescence (λex = 360/λem = 520 nm) with a microplate reader. The intensity of the fluorescence correlates directly with the amount of autophagy observed.

The next series deals with CpHDAC3. Conditions: recombinant protein; cited from earlier work.
The mark [8] stands for this setting: HDAC inhibitors, infected HCT-8 cells, 48 h, read-out: EC50 of Intracellular Stages.
Where [9] appears, read: Cryptosporidium parvum, HCT-8, 48 h, HCT-8 cells infected with C. parvum, 48 h treatment, read-out: EC50 for Intracellular Stages.
Where [10] appears, read: HCT-8 cells infected with C. parvum, 48 h treatment, read-out: EC50 for Intracellular Stages.
Setting [11] is: C. parvum infected then 1 mM butyrate, 48 h, compared with butyrate alone or infection alone.

“And” between values parts separate entries of the source, which are not always exact repeats. Identical values can stand only once. Like-named read-outs stand apart in the source and are kept apart here.

As to `COc1ccc(Cn2ccc3ccc(C(=O)NO)cc32)cc1` [PCI 34051], in the series on C. parvum [1] (setting [8]), the concentration for a half-maximal effect (EC50) is 0.001 µM and 0.001 to 0.007 µM. In addition, in the series with HCT-8 cells (below 200 nM), the toxicity entry was “no toxicity”. Moreover, the “majority of cytokines in the 48-plex assay (including IL-6 and TNF-α)” value in series [2] is on record as “did not increase cytokine expression”; in [2] (listed as PCI 34,051), “not significantly altered”.

Consider `CCC(=O)CCCCC[C@@H]1NC(=O)[C@H]2CCCCN2C(=O)[C@H]([C@@H](C)CC)NC(=O)[C@H](Cc2cn(OC)c3ccccc23)NC1=O` [Apicidin], for which the EC50 was 0.02 µM in the series on C. parvum [1] (Cryptosporidium parvum, HCT-8, 48 h, read-out: EC50 of Intracellular Stages, HDAC inhibitors, infected HCT-8 cells, 48 h) and 0.04 µM in the series with C. parvum [1] (read-out: EC50 of Intracellular Stages, HDAC inhibitors, infected HCT-8 cells, 48 h). The CC50 at 48 h in series [3] is 150 µM. The “anti-cryptosporidial activity at concentration” value with Cryptosporidium was 30 ng/mL.

Take `CC(/C=C/C(=O)NO)=C\[C@@H](C)C(=O)c1ccc(N(C)C)cc1` [Trichostatin A]: the EC50 with C. parvum [1] (setting [8]) came out at 0.02 µM. Moreover, the CC50 in the series on HCT-8 cells (HDAC inhibitors, 48 h, read-out: Cytotoxicity Concentration (CC50) for HCT-8 Host Cells) was more than 200 µM. The “anti-cryptosporidial activity at concentration” value in the series on Cryptosporidium is 30 ng/mL.

`CCCC(CCC)C(=O)O` [Valproate, reference compound]: the 50% effective concentration (EC50) with C. parvum [1] (setting [9]) came to 10000 µM. The inhibition of sporozoites result in the series with C. parvum sporozoites is “no inhibition”. Moreover, the half-maximal effective concentration (EC50) in the series on C. parvum sporozoites (Cryptosporidium parvum) is more than 100000 µM. In the series on T. gondii [4], the concentration for half-maximal inhibition (IC50) was 1000 to 5000 µM and the “inhibition of T. gondii in vitro” value is listed as “inhibit”. In the series with T. gondii [5], the “number of T. gondii cysts in the brains of mice” value is “reduce the number of T. gondii cysts”.

In the case of `O=C(O)CCCc1ccccc1` [4-phenylbuyrate], in the series on T. gondii [4], the “inhibition of T. gondii in vitro” value is “inhibit”.

Regarding `CC(=O)O` [Acetate], the EC50 in the series with C. parvum [1] (setting [10]) came out at 4000 µM. Moreover, in the series on C. parvum sporozoites, the inhibition of sporozoites entry is “no inhibition” and the concentration giving a half-maximal response (EC50) was more than 100000 µM. This compound gave a CC50 in the series with HCT-8 cells of more than 200000 µM. Also, the “concentration range inhibiting encystment” value with E. invadens was 6 to 22 mM.

Consider `O=C(CCCCCCC(=O)Nc1ccccc1)NO` [vorinostat], for which the in vitro activity entry in the series with C. parvum [6] is “in vitro activity”. Also, the “efficacy in a mouse model” value in the series on C. parvum [7] was “efficacy”.

`CCCC(=O)O` [Butyrate]: the EC50 is 4000 to 10000 µM in the series with C. parvum [1] (setting [9]), 3000 to 8000 µM in the series with C. parvum [1] (setting [10]) and 2000 µM with C. parvum sporozoites (Cryptosporidium parvum). For the same compound, the inhibition of sporozoites result in the series on C. parvum sporozoites was “inhibited growth”. In [2], the “majority of cytokines in the 48-plex assay (including IL-6 and TNF-α)” value was “not significantly altered”. In addition, the IL-1α entry in series [2] (setting [11]) is listed as “significant increase”. Besides, the IL-8 result in series [2] (setting [11]) is listed as “significant increase”. For the same compound, the apoptosis result in the series with apoptosis in HCT-8 cells (1.0 mM alone, compared to control, p < 0.05) is “significantly higher percentage of apoptosis”; with apoptosis in HCT-8 cells (C. parvum infection plus treatment 3 h after infection, 1 mM), “additional increase in apoptosis”. Besides, the autophagy result was “no difference” with autophagy in HCT-8 cells (1 mM alone, uninfected cells); “significant decrease in autophagy” in the series with autophagy in HCT-8 cells (cells infected with C. parvum and treated, 1 mM). Besides, in the series on E. invadens, the “concentration range inhibiting encystment” value is 6 to 22 mM. Also, the half-inhibitory concentration (IC50) in the series with T. gondii [4] is 1000 to 5000 µM. In the series on T. gondii [4], the “inhibition of T. gondii in vitro” value is reported as “inhibit”. Besides, the “inhibition of CpHDAC3” value in the series on CpHDAC3 is recorded as “did not inhibit”.

As to `CCC(=O)O` [Propionate], in the series on C. parvum [1] (setting [10]), the EC50 was in the range of 3000 to 4000 µM. For the same compound, in the series with C. parvum sporozoites, the inhibition of sporozoites result was “no inhibition” and the EC50 was more than 100000 µM. For the same compound, in the series with E. invadens, the “concentration range inhibiting encystment” value is 6 to 22 mM.

Values taken from article PMC9505670, “The Effect of Short-Chain Fatty Acids on Growth of Cryptosporidium parvum In Vitro” (Microorganisms, 2022).
